# Assays:
# [1] = system: CCRF-CEM; test: NCI 60 screen, CCRF-CEM; type: cell-based; conditions: Homo sapiens, Leukemia
# Method: (§1) The compounds synthesized were tested at the National Cancer Institute (NCI) for anti-proliferative activity in the 60 human tumor cell line assay.
# [2] = system: HL-60(TB); test: NCI 60 screen, HL-60(TB); type: cell-based; conditions: Homo sapiens, Leukemia
# Method: as §1
# [3] = system: K-562; test: NCI 60 screen, K-562; type: cell-based; conditions: Homo sapiens, K562, Leukemia
# Method: as §1
# [4] = system: MOLT-4; test: NCI 60 screen, MOLT-4; type: cell-based; conditions: Homo sapiens, Leukemia
# Method: as §1
# [5] = system: RPMI-8226; test: NCI 60 screen, RPMI-8226; type: cell-based; conditions: Homo sapiens, Leukemia
# Method: as §1
# [6] = system: SR; test: NCI 60 screen, SR; type: cell-based; conditions: Homo sapiens, Leukemia
# Method: as §1
# [7] = system: A549/ATCC; test: NCI 60 screen, A549/ATCC; type: cell-based; conditions: Homo sapiens, Non-Small Cell Lung
# Method: as §1
# [8] = system: EKVX; test: NCI 60 screen, EKVX; type: cell-based; conditions: Homo sapiens, Non-Small Cell Lung
# Method: as §1
# [9] = system: HOP-62; test: NCI 60 screen, HOP-62; type: cell-based; conditions: Homo sapiens, Non-Small Cell Lung
# Method: as §1
# [10] = system: HOP-92; test: NCI 60 screen, HOP-92; type: cell-based; conditions: Homo sapiens, Non-Small Cell Lung
# Method: as §1
# [11] = system: NCI-H226; test: NCI 60 screen, NCI-H226; type: cell-based; conditions: Homo sapiens, Non-Small Cell Lung
# Method: as §1
# [12] = system: NCI-H23; test: NCI 60 screen, NCI-H23; type: cell-based; conditions: Homo sapiens, Non-Small Cell Lung
# Method: as §1
# [13] = system: NCI-322M; test: NCI 60 screen, NCI-322M; type: cell-based; conditions: Homo sapiens, Non-Small Cell Lung
# Method: as §1
# [14] = system: NCI-460; test: NCI 60 screen, NCI-460; type: cell-based; conditions: Homo sapiens, Non-Small Cell Lung
# Method: as §1
# [15] = system: NCI-H522; test: NCI 60 screen, NCI-H522; type: cell-based; conditions: Homo sapiens, Non-Small Cell Lung
# Method: as §1
# [16] = system: COLO 205; test: NCI 60 screen, COLO 205; type: cell-based; conditions: Homo sapiens, Colon
# Method: as §1
# [17] = system: HCC-2998; test: NCI 60 screen, HCC-2998; type: cell-based; conditions: Homo sapiens, Colon
# Method: as §1
# [18] = system: HCT-116; test: NCI 60 screen, HCT-116; type: cell-based; conditions: Homo sapiens, Colon
# Method: as §1
# [19] = system: HCT15; test: NCI 60 screen, HCT15; type: cell-based; conditions: Homo sapiens, HCT-15, Colon
# Method: as §1
# [20] = system: HT29; test: NCI 60 screen, HT29; type: cell-based; conditions: Homo sapiens, HT-29, Colon
# Method: as §1
# [21] = system: KM12; test: NCI 60 screen, KM12; type: cell-based; conditions: Homo sapiens, Colon
# Method: as §1
# [22] = system: SW-620; test: NCI 60 screen, SW-620; type: cell-based; conditions: Homo sapiens, Colon
# Method: as §1
# [23] = system: SF-268; test: NCI 60 screen, SF-268; type: cell-based; conditions: Homo sapiens, CNS
# Method: as §1
# [24] = system: SF-295; test: NCI 60 screen, SF-295; type: cell-based; conditions: Homo sapiens, CNS
# Method: as §1
# [25] = system: SF-539; test: NCI 60 screen, SF-539; type: cell-based; conditions: Homo sapiens, CNS
# Method: as §1
# [26] = system: SNB-19; test: NCI 60 screen, SNB-19; type: cell-based; conditions: Homo sapiens, CNS
# Method: as §1
# [27] = system: SNB-75; test: NCI 60 screen, SNB-75; type: cell-based; conditions: Homo sapiens, CNS
# Method: as §1
# [28] = system: U251; test: NCI 60 screen, U251; type: cell-based; conditions: Homo sapiens, U-251, CNS
# Method: as §1
# [29] = system: LOX IMVI; test: NCI 60 screen, LOX IMVI; type: cell-based; conditions: Homo sapiens, Melanoma
# Method: as §1
# [30] = system: MALME-3M; test: NCI 60 screen, MALME-3M; type: cell-based; conditions: Homo sapiens, Melanoma
# Method: as §1
# [31] = system: M14; test: NCI 60 screen, M14; type: cell-based; conditions: Homo sapiens, Melanoma
# Method: as §1
# [32] = system: MDA-MB-435; test: NCI 60 screen, MDA-MB-435; type: cell-based; conditions: Homo sapiens, Melanoma
# Method: as §1
# [33] = system: SK-MEL-2; test: NCI 60 screen, SK-MEL-2 (first line); type: cell-based; conditions: Homo sapiens; Melanoma, SK-MEL-2 (first of two lines so named, r37)
# Method: as §1
# [34] = system: SK-MEL-2; test: NCI 60 screen, SK-MEL-2 (second line); type: cell-based; conditions: Homo sapiens; Melanoma, SK-MEL-2 (second of two lines so named, r38)
# Method: as §1
# [35] = system: SK-MEL-5; test: NCI 60 screen, SK-MEL-5; type: cell-based; conditions: Homo sapiens, Melanoma
# Method: as §1
# [36] = system: UACC-257; test: NCI 60 screen, UACC-257; type: cell-based; conditions: Homo sapiens, Melanoma
# Method: as §1
# [37] = system: UACC-62; test: NCI 60 screen, UACC-62; type: cell-based; conditions: Homo sapiens, Melanoma
# Method: as §1
# [38] = system: IGROV1; test: NCI 60 screen, IGROV1; type: cell-based; conditions: Homo sapiens, IGROV-1, Ovarian
# Method: as §1
# [39] = system: OVCAR-3; test: NCI 60 screen, OVCAR-3; type: cell-based; conditions: Homo sapiens, Ovarian
# Method: as §1
# [40] = system: OVCAR-4; test: NCI 60 screen, OVCAR-4; type: cell-based; conditions: Homo sapiens, Ovarian
# Method: as §1
# [41] = system: OVCAR-5; test: NCI 60 screen, OVCAR-5; type: cell-based; conditions: Homo sapiens, Ovarian
# Method: as §1
# [42] = system: OVCAR-8; test: NCI 60 screen, OVCAR-8; type: cell-based; conditions: Homo sapiens, Ovarian
# Method: as §1
# [43] = system: NCI/ADR-RES; test: NCI 60 screen, NCI/ADR-RES; type: cell-based; conditions: Homo sapiens, Ovarian
# Method: as §1
# [44] = system: SK-OV-3; test: NCI 60 screen, SK-OV-3; type: cell-based; conditions: Homo sapiens, Ovarian
# Method: as §1
# [45] = system: 786-0; test: NCI 60 screen, 786-0; type: cell-based; conditions: Homo sapiens, Renal
# Method: as §1
# [46] = system: A498; test: NCI 60 screen, A498; type: cell-based; conditions: Homo sapiens, Renal
# Method: as §1
# [47] = system: ACHN; test: NCI 60 screen, ACHN; type: cell-based; conditions: Homo sapiens, Renal
# Method: as §1
# [48] = system: CAKI-1; test: NCI 60 screen, CAKI-1; type: cell-based; conditions: Homo sapiens, Renal
# Method: as §1
# [49] = system: RXF393; test: NCI 60 screen, RXF393; type: cell-based; conditions: Homo sapiens, RXF 393, Renal
# Method: as §1
# [50] = system: SN12C; test: NCI 60 screen, SN12C; type: cell-based; conditions: Homo sapiens, Renal
# Method: as §1
# [51] = system: TK-10; test: NCI 60 screen, TK-10; type: cell-based; conditions: Homo sapiens, Renal
# Method: as §1
# [52] = system: UO-31; test: NCI 60 screen, UO-31; type: cell-based; conditions: Homo sapiens, Renal
# Method: as §1
# [53] = system: PC-3; test: NCI 60 screen, PC-3; type: cell-based; conditions: Homo sapiens, Prostatic
# Method: as §1
# [54] = system: DU-145; test: NCI 60 screen, DU-145; type: cell-based; conditions: Homo sapiens, Prostatic
# Method: as §1
# [55] = system: MCF7; test: NCI 60 screen, MCF7; type: cell-based; conditions: Homo sapiens, Breast
# Method: as §1
# [56] = system: MDA-MB-231/ATCC; test: NCI 60 screen, MDA-MB-231/ATCC; type: cell-based; conditions: Homo sapiens, Breast
# Method: as §1
# [57] = system: HS 578T; test: NCI 60 screen, HS 578T; type: cell-based; conditions: Homo sapiens, Breast
# Method: as §1
# [58] = system: BT-549; test: NCI 60 screen, BT-549; type: cell-based; conditions: Homo sapiens, Breast
# Method: as §1
# [59] = system: T-47D; test: NCI 60 screen, T-47D; type: cell-based; conditions: Homo sapiens, T47D, Breast
# Method: as §1
# [60] = system: MDA-MB-468; test: NCI 60 screen, MDA-MB-468; type: cell-based; conditions: Homo sapiens, Breast
# Method: as §1
compound,measurement,setting,value
"CCn1ccnc1C(=O)/C=C/c1ccc(CC(=O)Nc2ccc(F)cc2)cc1 [Compound 31, (E)-2-(4-(3-(1-ethyl-1H-imidazol-2-yl)-3-oxoprop-1-en-1-yl)phenyl)-N-(4-fluorophenyl)acetamide]",GI50,[1],4.34 µM
same,GI50,[2],3.18 µM
same,GI50,[3],2.06 µM
same,GI50,[4],5.28 µM
same,GI50,[5],2.28 µM
same,GI50,[6],0.53 µM
same,GI50,[7],4.16 µM
same,GI50,[8],3.59 µM
same,GI50,[9],3.92 µM
same,GI50,[10],3.32 µM
same,GI50,[11],3.61 µM
same,GI50,[12],4.25 µM
same,GI50,[13],3.49 µM
same,GI50,[14],2.64 µM
same,GI50,[15],3.92 µM
same,GI50,[16],4.29 µM
same,GI50,[17],5.1 µM
same,GI50,[18],1.84 µM
same,GI50,[19],1.93 µM
same,GI50,[20],5.64 µM
same,GI50,[21],3.06 µM
same,GI50,[22],4.29 µM
same,GI50,[23],3.81 µM
same,GI50,[24],4.41 µM
same,GI50,[25],2.93 µM
same,GI50,[26],3.58 µM
same,GI50,[27],2.81 µM
same,GI50,[28],1.88 µM
same,GI50,[29],0.56 µM
same,GI50,[30],16.7 µM
same,GI50,[31],3.02 µM
same,GI50,[32],4.58 µM
same,GI50,[33],6.26 µM
same,GI50,[34],4.92 µM
same,GI50,[35],5.74 µM
same,GI50,[36],14 µM
same,GI50,[37],2.83 µM
same,GI50,[38],4.63 µM
same,GI50,[39],3.92 µM
same,GI50,[40],3.31 µM
same,GI50,[41],4.97 µM
same,GI50,[42],4.86 µM
same,GI50,[43],5.37 µM
same,GI50,[44],6.97 µM
same,GI50,[45],4.36 µM
same,GI50,[46],3.73 µM
same,GI50,[47],3.95 µM
same,GI50,[48],5.08 µM
same,GI50,[49],3.39 µM
same,GI50,[50],3.71 µM
same,GI50,[51],6.01 µM
same,GI50,[52],2.65 µM
same,GI50,[53],7.06 µM
same,GI50,[54],4.45 µM
same,GI50,[55],2.52 µM
same,GI50,[56],3.36 µM
same,GI50,[57],5.36 µM
same,GI50,[58],2.94 µM
same,GI50,[59],3.8 µM
same,GI50,[60],1.99 µM
same,melting point,,219 to 220 °C
